Reference: ChEMBL document CHEMBL6083277, “Discovery of SZJK-0421: A Novel Potent, Low Toxicity, Selective Second Generation of CRM1 Inhibitor for the Treatment of Both Hematological and Solid Tumors” (J Med Chem, 2024)
Active and inactive are the calls of the source. No cut-off for these calls is given here.

Experiments:
MM1.S [1] = assay: Antiproliferative activity against human MM1.S cells assessed as inhibition of cell growth incubated for 72 hrs by celltiter-glo assay; format: functional, cell-based
RPMI-8226 = assay: Antiproliferative activity against human RPMI-8226 cells assessed as inhibition of cell growth incubated for 72 hrs by celltiter-glo assay; format: functional, cell-based; conditions: RPMI-8226, 72 h
KMS-11 = assay: Antiproliferative activity against human KMS-11 cells assessed as inhibition of cell growth incubated for 72 hrs by celltiter-glo assay; format: functional, cell-based; conditions: KMS-11, 72 h
[2] = Antiproliferative activity against human ARP-1 cells assessed as inhibition of cell growth incubated for 72 hrs by celltiter-glo assay; format: functional, cell-based; conditions: ARP-1, 72 h
LAMA-84 = assay: Antiproliferative activity against human LAMA-84 cells assessed as inhibition of cell growth incubated for 72 hrs by celltiter-glo assay; format: functional, cell-based; conditions: LAMA-84, 72 h
MV4-11 = assay: Antiproliferative activity against human MV4-11 cells assessed as inhibition of cell growth incubated for 72 hrs by celltiter-glo assay; format: functional, cell-based; conditions: MV4-11, 72 h
ARH-77 = assay: Antiproliferative activity against human ARH-77 cells assessed as inhibition of cell growth incubated for 72 hrs by celltiter-glo assay; format: functional, cell-based; conditions: ARH-77, 72 h
MOLM-13 = assay: Antiproliferative activity against human MOLM-13 cells assessed as inhibition of cell growth incubated for 72 hrs by celltiter-glo assay; format: functional, cell-based; conditions: MOLM-13, 72 h
HCT-116 = assay: Antiproliferative activity against human HCT-116 cells assessed as inhibition of cell growth incubated for 72 hrs by celltiter-glo assay; format: functional, cell-based; conditions: HCT-116, 72 h
LoVo = assay: Antiproliferative activity against human LoVo cells assessed as inhibition of cell growth incubated for 72 hrs by celltiter-glo assay; format: functional, cell-based
BXPC-3 = assay: Antiproliferative activity against human BXPC-3 cells assessed as inhibition of cell growth incubated for 72 hrs by celltiter-glo assay; format: functional, cell-based; conditions: BXPC-3, 72 h
AN3-CA = assay: Antiproliferative activity against human AN3-CA cells assessed as inhibition of cell growth incubated for 72 hrs by celltiter-glo assay; format: functional, cell-based
SW872 = assay: Antiproliferative activity against human SW872 cells assessed as inhibition of cell growth incubated for 72 hrs by celltiter-glo assay; format: functional, cell-based; conditions: SW872, 72 h
[3] = target: Ran-specific GTPase-activating protein (Homo sapiens, UniProt P43487); assay: Inhibition of RANBP1 nuclear export in human U2OS cells assessed as increase in fluorescence intensity measured for 15 mins by DAPI staining based fluorescence microscopic analysis; format: cell-based
[4] = target: Exportin-1 (Homo sapiens) (UniProt O14980); assay: Reversible binding affinity to CRM1 in human U2OS cells incubated for 4 hrs by DAPI staining based fluorescence microscopic analysis; format: cell-based
MM1.S [5] = assay: Inhibition of CRM1 protein expression in human MM1.S cells by Western blot analysis; format: functional, cell-based; conditions: dose 0.25-1.25 µM
MM1.S [6] = assay: Inhibition of CRM1 protein expression in human MM1.S cells at 0.25 to 1.25 uM by Western blot analysis; format: functional, cell-based; conditions: dose 0.25-1.25 µM, time 2-24 hrs
MM1.S [7] = assay: Induction of apoptosis in human MM1.S cells at 0.5 to 1 uM incubated for 48 hrs by Annexin V-FITC/PI staining based flow cytometry analysis; format: functional, cell-based; conditions: dose 0.5-1 µM
MM1.S [8] = assay: Induction of apoptosis in human MM1.S cells assessed as increase in FOXO3A signal intensity; format: functional, cell-based
[9] = Metabolic stability in human liver microsomes assessed as half life measured upto 60 mins in presence of NADPH by LC/MS-MS analysis; format: ADME, Microsome
[10] = Metabolic stability in mouse liver microsomes assessed as half life measured upto 60 mins in presence of NADPH by LC/MS-MS analysis; format: ADME, Microsome
[11] = Metabolic stability in rat liver microsomes assessed as half life measured upto 60 mins in presence of NADPH by LC/MS-MS analysis; format: ADME, Microsome
[12] = Metabolic stability in dog liver microsomes assessed as half life measured upto 60 mins in presence of NADPH by LC/MS-MS analysis; format: ADME, Canis lupus familiaris, Microsome
[13] = Metabolic stability in monkey liver microsomes assessed as half life measured upto 60 mins in presence of NADPH by LC/MS-MS analysis; format: ADME, Macaca mulatta, Microsome; conditions: rhesus monkey
[14] = Metabolic stability in human liver microsomes assessed as intrinsic clearance measured upto 60 mins in presence of NADPH by LC/MS-MS analysis; format: ADME, Microsome; conditions: read-out: CLH
[15] = Metabolic stability in mouse liver microsomes assessed as intrinsic clearance measured upto 60 mins in presence of NADPH by LC/MS-MS analysis; format: ADME, Microsome; conditions: read-out: CLH
[16] = Metabolic stability in rat liver microsomes assessed as intrinsic clearance measured upto 60 mins in presence of NADPH by LC/MS-MS analysis; format: ADME, Microsome; conditions: read-out: CLH
[17] = Metabolic stability in dog liver microsomes assessed as intrinsic clearance measured upto 60 mins in presence of NADPH by LC/MS-MS analysis; format: ADME, Canis lupus familiaris, Microsome; conditions: read-out: CLH
[18] = Metabolic stability in monkey liver microsomes assessed as intrinsic clearance measured upto 60 mins in presence of NADPH by LC/MS-MS analysis; format: ADME, Macaca mulatta, Microsome; conditions: rhesus monkey, read-out: CLH
[19] = Half life in male Sprague-Dawley rat at 2 mg/kg, iv measured upto 30 hrs by LC-MS/MS analysis; format: ADME, organism-based; conditions: in vivo
[20] = Half life in male Sprague-Dawley rat at 10 mg/kg, po measured upto 30 hrs by LC-MS/MS analysis; format: ADME, organism-based; conditions: in vivo
[21] = Cmax in male Sprague-Dawley rat at 10 mg/kg, po measured upto 30 hrs by LC-MS/MS analysis; format: ADME, organism-based; conditions: in vivo
[22] = Tmax in male Sprague-Dawley rat at 10 mg/kg, po measured upto 30 hrs by LC-MS/MS analysis; format: ADME, organism-based; conditions: in vivo
[23] = AUC (0 to t) in male Sprague-Dawley rat at 2 mg/kg, iv measured upto 30 hrs by LC-MS/MS analysis; format: ADME, organism-based; conditions: in vivo
[24] = AUC (0 to t) in male Sprague-Dawley rat at 10 mg/kg, po measured upto 30 hrs by LC-MS/MS analysis; format: ADME, organism-based; conditions: in vivo
[25] = AUC (0 to infinity) in male Sprague-Dawley rat at 2 mg/kg, iv measured upto 30 hrs by LC-MS/MS analysis; format: ADME, organism-based; conditions: in vivo
[26] = AUC (0 to infinity) in male Sprague-Dawley rat at 10 mg/kg, po measured upto 30 hrs by LC-MS/MS analysis; format: ADME, organism-based; conditions: in vivo
[27] = Oral bioavailability in male Sprague-Dawley rat at 10 mg/kg measured upto 30 hrs by LC-MS/MS analysis; format: ADME, organism-based; conditions: in vivo
[28] = target: Voltage-gated inwardly rectifying potassium channel KCNH2 (Homo sapiens, UniProt Q12809); assay: Inhibition of hERG in HEK293 cells; format: toxicity, cell-based
[29] = Cmax in male Sprague-Dawley rat plasma at 10 mg/kg, IG measured at 6 hrs by LC-MS/MS analysis; format: ADME, organism-based; conditions: po
[30] = AUC in male Sprague-Dawley rat brain at 10 mg/kg, IG measured at 6 hrs by LC-MS/MS analysis; format: ADME, organism-based; conditions: po
[31] = AUC in male Sprague-Dawley rat plasma at 10 mg/kg, IG measured at 6 hrs by LC-MS/MS analysis; format: ADME, organism-based; conditions: po
[32] = Toxicity in BALB/c mouse assessed as decrease in body weight at 30 mg/kg, po administered once daily for 21 days; format: organism-based; conditions: in vivo, 504 h, time 21 day
[33] = Toxicity in BALB/c mouse assessed as animal death at 60 mg/kg, po measured on day 6,7 and 11; format: organism-based; conditions: in vivo, 576 h, time 24 day
[34] = Toxicity in BALB/c mouse assessed as appearance of erectile hair at 60 mg/kg, po administered once daily for 21 days; format: organism-based; conditions: in vivo, 504 h, time 21 day
[35] = Toxicity in BALB/c mouse assessed as appearance of loose stools at 60 mg/kg, po administered once daily for 21 days; format: organism-based; conditions: in vivo, 504 h, time 21 day
[36] = Toxicity in NOD-SCID mouse implanted with human MM1.S cells assessed as body weight loss at 15 mg/kg, po measured upto 21 days; format: organism-based; conditions: in vivo, 504 h, time < 21 day
[37] = Toxicity in NOD-SCID mouse assessed as shortening of villi in intestine at 15 mg/kg, po measured every 2 days for 21 days by H and E staining based analysis; format: organism-based; conditions: in vivo, 504 h, time 21 day
[38] = Toxicity in NOD-SCID mouse assessed as hyperplasia of crypt in intestine at 60 mg/kg, po measured every 2 days for 21 days by H and E staining based analysis; format: organism-based; conditions: in vivo, 504 h, time 21 day
[39] = Toxicity in NOD-SCID mouse assessed as loss of crypt depth in intestine at 60 mg/kg, po measured every 2 days for 21 days by H and E staining based analysis; format: organism-based; conditions: in vivo, 504 h, time 21 day
[40] = Toxicity in NOD-SCID mouse assessed as decrease in villus height to crypt depth ratio at 60 mg/kg, po measured every 2 days for 21 days by H and E staining based analysis; format: organism-based; conditions: in vivo, 504 h, time 21 day

Sequence of Voltage-gated inwardly rectifying potassium channel KCNH2 (Q12809 whole entry): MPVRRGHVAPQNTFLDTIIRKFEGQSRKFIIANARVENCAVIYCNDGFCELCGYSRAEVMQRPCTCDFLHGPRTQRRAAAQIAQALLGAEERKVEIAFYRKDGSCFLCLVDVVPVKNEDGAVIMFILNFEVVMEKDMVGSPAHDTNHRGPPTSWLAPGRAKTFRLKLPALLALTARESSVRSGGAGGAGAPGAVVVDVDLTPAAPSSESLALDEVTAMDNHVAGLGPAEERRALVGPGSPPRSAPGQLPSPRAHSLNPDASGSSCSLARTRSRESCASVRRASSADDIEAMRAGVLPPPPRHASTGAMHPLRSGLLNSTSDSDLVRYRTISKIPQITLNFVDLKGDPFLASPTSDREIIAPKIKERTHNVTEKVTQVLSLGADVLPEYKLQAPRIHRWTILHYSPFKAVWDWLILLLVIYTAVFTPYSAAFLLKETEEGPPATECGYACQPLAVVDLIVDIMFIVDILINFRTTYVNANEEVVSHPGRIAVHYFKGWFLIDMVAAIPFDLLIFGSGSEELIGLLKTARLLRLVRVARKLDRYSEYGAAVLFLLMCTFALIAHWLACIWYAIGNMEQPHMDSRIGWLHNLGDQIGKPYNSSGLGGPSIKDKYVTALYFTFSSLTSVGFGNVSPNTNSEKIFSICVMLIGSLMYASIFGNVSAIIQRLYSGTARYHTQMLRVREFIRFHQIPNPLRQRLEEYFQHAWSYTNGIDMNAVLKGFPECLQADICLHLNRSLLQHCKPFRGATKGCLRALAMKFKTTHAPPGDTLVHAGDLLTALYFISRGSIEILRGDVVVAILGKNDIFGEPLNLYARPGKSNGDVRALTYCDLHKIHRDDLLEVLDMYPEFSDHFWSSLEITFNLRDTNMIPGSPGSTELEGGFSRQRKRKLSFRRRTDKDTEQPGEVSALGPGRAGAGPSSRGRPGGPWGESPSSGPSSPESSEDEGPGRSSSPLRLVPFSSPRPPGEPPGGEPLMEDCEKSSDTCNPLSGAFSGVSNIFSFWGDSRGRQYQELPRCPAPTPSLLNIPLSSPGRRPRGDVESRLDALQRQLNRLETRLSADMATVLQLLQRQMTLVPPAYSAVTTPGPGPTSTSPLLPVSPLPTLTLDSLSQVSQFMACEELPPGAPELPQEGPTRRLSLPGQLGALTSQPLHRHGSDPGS
Sequence of Ran-specific GTPase-activating protein (P43487 whole entry): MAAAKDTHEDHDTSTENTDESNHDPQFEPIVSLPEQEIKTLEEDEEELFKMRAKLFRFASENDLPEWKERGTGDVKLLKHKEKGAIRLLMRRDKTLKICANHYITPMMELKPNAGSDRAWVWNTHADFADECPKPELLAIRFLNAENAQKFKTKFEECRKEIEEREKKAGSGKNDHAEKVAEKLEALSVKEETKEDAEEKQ
Sequence of Exportin-1 (Homo sapiens) (O14980 whole entry): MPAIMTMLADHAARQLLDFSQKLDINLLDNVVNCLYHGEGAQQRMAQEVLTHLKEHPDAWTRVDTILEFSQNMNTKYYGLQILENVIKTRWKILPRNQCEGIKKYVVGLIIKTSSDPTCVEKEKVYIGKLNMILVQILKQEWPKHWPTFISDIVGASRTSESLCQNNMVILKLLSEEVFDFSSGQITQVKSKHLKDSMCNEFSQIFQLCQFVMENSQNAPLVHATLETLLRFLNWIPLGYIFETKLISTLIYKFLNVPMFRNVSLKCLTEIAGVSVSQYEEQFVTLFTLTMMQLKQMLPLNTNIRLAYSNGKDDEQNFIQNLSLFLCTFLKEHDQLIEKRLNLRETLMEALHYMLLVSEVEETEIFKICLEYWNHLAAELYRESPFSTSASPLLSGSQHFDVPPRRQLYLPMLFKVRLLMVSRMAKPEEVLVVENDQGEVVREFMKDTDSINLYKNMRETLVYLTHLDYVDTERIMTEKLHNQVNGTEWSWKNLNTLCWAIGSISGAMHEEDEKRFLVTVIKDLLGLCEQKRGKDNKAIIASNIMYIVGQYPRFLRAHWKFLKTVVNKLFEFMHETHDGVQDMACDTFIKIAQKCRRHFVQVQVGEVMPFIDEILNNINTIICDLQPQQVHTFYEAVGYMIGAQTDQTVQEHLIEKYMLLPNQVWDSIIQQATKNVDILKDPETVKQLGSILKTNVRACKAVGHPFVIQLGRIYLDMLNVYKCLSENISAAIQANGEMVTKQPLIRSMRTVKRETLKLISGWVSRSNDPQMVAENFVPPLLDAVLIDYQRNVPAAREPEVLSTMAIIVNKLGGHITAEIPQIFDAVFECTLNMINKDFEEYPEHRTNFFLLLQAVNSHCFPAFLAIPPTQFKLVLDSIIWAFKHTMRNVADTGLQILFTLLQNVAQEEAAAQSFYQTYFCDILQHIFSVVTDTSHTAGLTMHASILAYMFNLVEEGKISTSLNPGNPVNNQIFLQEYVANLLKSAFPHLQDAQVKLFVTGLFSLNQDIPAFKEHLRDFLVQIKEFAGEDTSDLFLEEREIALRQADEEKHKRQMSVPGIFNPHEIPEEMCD

With NC(=O)/C(=C/n1cnc(-c2cc(C(F)(F)F)cc(C(F)(F)F)c2)n1)c1cncnc1 [ELTANEXOR] the IC50 (MM1.S [1]) was 84.7 nM, the IC50 (RPMI-8226) was 217 nM and the IC50 (KMS-11) was 1260 nM. It also gave an IC50 [2] of 2700 nM, an IC50 (LAMA-84) of 2910 nM and an IC50 (MV4-11) of 55.6 nM. For the same compound, the IC50 (ARH-77) was 435 nM, the IC50 (MOLM-13) was 435 nM and the IC50 (HCT-116) was 130 nM. The IC50 (LoVo) was 304 nM, the IC50 (BXPC-3) was 2170 nM and the IC50 (AN3-CA) was 1170 nM. The IC50 (SW872) was 1090 nM, the IC50 [3] was 550 nM and the Activity [4] was “Active”. For the same compound, the inhibition (MM1.S [5]) was “Dose-dependent-effect”, the inhibition (MM1.S [6]) was “Time-dependent-effect” and the Activity (MM1.S [7]) was “Active”. For the same compound, the Activity (MM1.S [8]) was “Active”, the half-life [9] was > 2 h and the half-life [10] was > 2 h. For the same compound, the half-life [11] was > 2 h, the half-life [12] was > 2 h and the half-life [13] was > 2 h. It also gave a microsomal CLint [14] of 0.2 µL/min/mg, a microsomal CLint [15] of 15.6 µL/min/mg and a microsomal CLint [16] of 15.5 µL/min/mg. For the same compound, the microsomal CLint [17] was 3.2 µL/min/mg, the microsomal CLint [18] was 11.8 µL/min/mg and the half-life [19] was 3 h. For the same compound, the half-life [20] was 2.7 h, the Cmax [21] was 720 ng/mL and the Tmax [22] was 1 h. For the same compound, the AUC(0-t) at 30 h [23] was 963 ng·h/mL, the AUC(0-t) at 30 h [24] was 2540 ng·h/mL and the AUC(0-inf) [25] was 998 ng·h/mL. It also gave an AUC(0-inf) [26] of 2590 ng·h/mL, a bioavailability [27] of 52% and an IC50 [28] of 8200 nM. For the same compound, the Cmax [29] was 141 ng/mL, the AUC at 6 h [30] was 83.3 ng·h/mL and the AUC at 6 h [31] was 1940 ng·h/mL. The Activity [32] was “Non-toxic”, the Activity [33] was “Toxic” and the Activity [34] was “Toxic”. For the same compound, the Activity [35] was “Toxic”, the Activity [36] was “Toxic” and the Activity [37] was “Non-toxic”. The Activity [38] was “Non-toxic”, the Activity [39] was “Non-toxic” and the Activity [40] was “Non-toxic”.
